Data from article PMC4355085 (Cancer discovery, 2014).

Biological target: EphA2 (Homo sapiens, UniProt P29317)
Assay: cell-free kinase assay
Assay type: biochemical

Sequence of EphA2 (P29317 24-976): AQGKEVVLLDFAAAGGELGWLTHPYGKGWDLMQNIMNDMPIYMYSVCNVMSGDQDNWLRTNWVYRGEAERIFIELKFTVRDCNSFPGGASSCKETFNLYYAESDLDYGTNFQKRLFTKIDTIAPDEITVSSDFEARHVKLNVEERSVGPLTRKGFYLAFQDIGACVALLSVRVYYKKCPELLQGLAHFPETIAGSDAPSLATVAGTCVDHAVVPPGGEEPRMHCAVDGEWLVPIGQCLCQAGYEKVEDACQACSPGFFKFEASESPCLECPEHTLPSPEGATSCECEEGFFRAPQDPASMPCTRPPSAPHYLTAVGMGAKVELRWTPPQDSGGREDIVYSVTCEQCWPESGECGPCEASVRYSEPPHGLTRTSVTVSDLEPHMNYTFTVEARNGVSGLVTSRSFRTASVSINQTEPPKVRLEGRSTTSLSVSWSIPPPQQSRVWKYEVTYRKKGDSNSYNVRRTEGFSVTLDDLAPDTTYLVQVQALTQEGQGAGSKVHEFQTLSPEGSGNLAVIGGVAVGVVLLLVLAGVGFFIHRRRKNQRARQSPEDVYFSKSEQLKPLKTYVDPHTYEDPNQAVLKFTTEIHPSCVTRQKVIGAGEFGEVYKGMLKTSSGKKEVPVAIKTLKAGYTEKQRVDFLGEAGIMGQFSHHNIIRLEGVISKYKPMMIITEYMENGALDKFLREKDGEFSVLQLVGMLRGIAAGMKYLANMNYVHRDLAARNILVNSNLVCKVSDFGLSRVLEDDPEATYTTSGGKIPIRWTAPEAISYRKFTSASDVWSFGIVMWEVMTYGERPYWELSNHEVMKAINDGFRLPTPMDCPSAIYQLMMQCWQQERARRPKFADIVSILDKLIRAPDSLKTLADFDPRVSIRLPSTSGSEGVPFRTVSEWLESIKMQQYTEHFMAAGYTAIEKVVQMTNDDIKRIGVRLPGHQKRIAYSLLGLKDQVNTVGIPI

IC50: 77.1 nM
SMILES: CCN1CCN(Cc2ccc(NC(=O)c3ccc(C)c(/C=C/c4cnc5[nH]ccc5c4OC)c3)cc2C(F)(F)F)CC1 [HG-6-64-1]
